Assay results from patent US20250011829A1, “MEMBRANE FOR MICROBIOLOGICAL ANALYSIS” (Sartorius Stedim Biotech GmbH, priority 2021, published 2025).

Assays:
[1] = ILC; for adsorbed amount of surfactant on the membrane: surfactant concentration 0.1 g/L
[2] = Evaluation of wettability by filtration with activated carbon; format: physicochemical; conditions: membrane filters impregnated with 0.1 wt % surfactant; white spots indicate inhomogeneous wetting
Protocol: The wetting ability of membrane filters obtained in Example 1, which were impregnated with 0.1 wt % of each of Tween 80, Triton X100, Brij 35, SDS, and SDBS, was evaluated after filtration with activated carbon. For this purpose, the pieces with a diameter of 4.7 cm were placed with the application side of the membrane pointing upwards on a frit of a filtration unit before cups are attached thereon. All valves of the filtration bar are closed. 0.2 g of activated carbon is suspended in 1 L of RO water and 100 ml of filtration volume is measured after vigorous stirring and filled into the filtration cups. The pump is then switched on and the valves are opened. After filtration, the black filter pieces are placed on a white sheet of paper and photographed. White spots indicate an inhomogeneous wetting pattern (FIG. 1).

[3] = test system: L. anisa WDCM 00106; format: cell-based, Legionella anisa

Row | Substance | adsorbed amount of surfactant on the membrane [1] [μg/cm^2] | adsorbed amount relative to SDBS ([1]; surfactant concentration 1.0 g/L) | wetting pattern after filtration with activated carbon [2] | colony forming units of L. anisa [3]
1 | 4-(1,1,3,3-tetramethylbutyl)-phenyl-polyethylene glycol [Triton X-100] | 51.5 | two times higher compared to SDBS |  | 
2 | polyoxyethylene(x)-sorbitan monooleate (x=80) [Tween 80] |  |  | white wetting spots were visible | 
3 | sodium dodecyl benzyl sulfonate [SDBS] | 8.73 |  |  | sharp decrease in colony forming units
